Reference: ChEMBL document CHEMBL5678818, “Discovery of potent SOS1 inhibitors that block RAS activation via disruption of the RAS-SOS1 interaction” (Proc Natl Acad Sci U S A, 2019)
The source made the active and inactive calls. The rule behind the calls is not given here.

Key:
Homo sapiens = organism: Homo sapiens; assay: Inhibition of N-terminal His10-tagged 15N-labeled recombinant human KRAS G12C/C118S mutant (1 to 169 residues) expressed in Escherichia coli/N-terminal His10-tagged wild-type recombinant human SOS1 catalytic domain (564 to 1049 residues) expressed in Escherichia coli protein-protein interaction at 1 mM incubated for 30 mins by 2D-NMR analysis
[1] = biological target: AP2-associated protein kinase 1 (Homo sapiens) (UniProt Q2M2I8); assay: Inhibition of AAK1 (unknown origin) assessed as residual activity at 100 nM by KINOMEscan analysis relative to control
AP2-associated protein kinase 1 (Homo sapiens), sequence (Q2M2I8 whole entry, looked up): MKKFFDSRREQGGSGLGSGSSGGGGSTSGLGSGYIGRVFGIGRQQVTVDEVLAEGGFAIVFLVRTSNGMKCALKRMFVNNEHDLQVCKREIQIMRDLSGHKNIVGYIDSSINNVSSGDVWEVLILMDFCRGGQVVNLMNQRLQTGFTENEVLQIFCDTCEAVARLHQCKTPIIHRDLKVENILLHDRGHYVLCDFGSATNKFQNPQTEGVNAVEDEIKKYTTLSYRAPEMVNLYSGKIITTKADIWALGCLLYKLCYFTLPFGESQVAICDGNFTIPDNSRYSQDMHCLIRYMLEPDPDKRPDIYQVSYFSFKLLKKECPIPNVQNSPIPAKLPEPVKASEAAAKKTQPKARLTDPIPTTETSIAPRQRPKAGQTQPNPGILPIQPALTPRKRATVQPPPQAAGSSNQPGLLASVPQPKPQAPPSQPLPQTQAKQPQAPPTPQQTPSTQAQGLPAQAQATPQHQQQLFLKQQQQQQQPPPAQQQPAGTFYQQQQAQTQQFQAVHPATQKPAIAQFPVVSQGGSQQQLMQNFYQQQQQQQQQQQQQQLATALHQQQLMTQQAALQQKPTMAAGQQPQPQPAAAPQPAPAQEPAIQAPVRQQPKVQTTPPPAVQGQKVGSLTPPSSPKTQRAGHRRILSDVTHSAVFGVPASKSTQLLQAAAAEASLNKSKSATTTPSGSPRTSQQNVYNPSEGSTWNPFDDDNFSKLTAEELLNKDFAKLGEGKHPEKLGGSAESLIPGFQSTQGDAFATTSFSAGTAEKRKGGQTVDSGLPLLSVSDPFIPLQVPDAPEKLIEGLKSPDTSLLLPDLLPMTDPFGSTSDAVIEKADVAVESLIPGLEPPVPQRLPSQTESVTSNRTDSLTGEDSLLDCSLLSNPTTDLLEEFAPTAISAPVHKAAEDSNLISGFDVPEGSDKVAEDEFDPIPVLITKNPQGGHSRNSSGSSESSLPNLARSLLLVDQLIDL

[2] = biological target: ALK tyrosine kinase receptor (Homo sapiens) (UniProt Q9UM73); assay: Inhibition of ALK (unknown origin) assessed as residual activity at 100 nM by KINOMEscan analysis relative to control
ALK tyrosine kinase receptor (Homo sapiens), sequence (Q9UM73 19-1620 limits assumed): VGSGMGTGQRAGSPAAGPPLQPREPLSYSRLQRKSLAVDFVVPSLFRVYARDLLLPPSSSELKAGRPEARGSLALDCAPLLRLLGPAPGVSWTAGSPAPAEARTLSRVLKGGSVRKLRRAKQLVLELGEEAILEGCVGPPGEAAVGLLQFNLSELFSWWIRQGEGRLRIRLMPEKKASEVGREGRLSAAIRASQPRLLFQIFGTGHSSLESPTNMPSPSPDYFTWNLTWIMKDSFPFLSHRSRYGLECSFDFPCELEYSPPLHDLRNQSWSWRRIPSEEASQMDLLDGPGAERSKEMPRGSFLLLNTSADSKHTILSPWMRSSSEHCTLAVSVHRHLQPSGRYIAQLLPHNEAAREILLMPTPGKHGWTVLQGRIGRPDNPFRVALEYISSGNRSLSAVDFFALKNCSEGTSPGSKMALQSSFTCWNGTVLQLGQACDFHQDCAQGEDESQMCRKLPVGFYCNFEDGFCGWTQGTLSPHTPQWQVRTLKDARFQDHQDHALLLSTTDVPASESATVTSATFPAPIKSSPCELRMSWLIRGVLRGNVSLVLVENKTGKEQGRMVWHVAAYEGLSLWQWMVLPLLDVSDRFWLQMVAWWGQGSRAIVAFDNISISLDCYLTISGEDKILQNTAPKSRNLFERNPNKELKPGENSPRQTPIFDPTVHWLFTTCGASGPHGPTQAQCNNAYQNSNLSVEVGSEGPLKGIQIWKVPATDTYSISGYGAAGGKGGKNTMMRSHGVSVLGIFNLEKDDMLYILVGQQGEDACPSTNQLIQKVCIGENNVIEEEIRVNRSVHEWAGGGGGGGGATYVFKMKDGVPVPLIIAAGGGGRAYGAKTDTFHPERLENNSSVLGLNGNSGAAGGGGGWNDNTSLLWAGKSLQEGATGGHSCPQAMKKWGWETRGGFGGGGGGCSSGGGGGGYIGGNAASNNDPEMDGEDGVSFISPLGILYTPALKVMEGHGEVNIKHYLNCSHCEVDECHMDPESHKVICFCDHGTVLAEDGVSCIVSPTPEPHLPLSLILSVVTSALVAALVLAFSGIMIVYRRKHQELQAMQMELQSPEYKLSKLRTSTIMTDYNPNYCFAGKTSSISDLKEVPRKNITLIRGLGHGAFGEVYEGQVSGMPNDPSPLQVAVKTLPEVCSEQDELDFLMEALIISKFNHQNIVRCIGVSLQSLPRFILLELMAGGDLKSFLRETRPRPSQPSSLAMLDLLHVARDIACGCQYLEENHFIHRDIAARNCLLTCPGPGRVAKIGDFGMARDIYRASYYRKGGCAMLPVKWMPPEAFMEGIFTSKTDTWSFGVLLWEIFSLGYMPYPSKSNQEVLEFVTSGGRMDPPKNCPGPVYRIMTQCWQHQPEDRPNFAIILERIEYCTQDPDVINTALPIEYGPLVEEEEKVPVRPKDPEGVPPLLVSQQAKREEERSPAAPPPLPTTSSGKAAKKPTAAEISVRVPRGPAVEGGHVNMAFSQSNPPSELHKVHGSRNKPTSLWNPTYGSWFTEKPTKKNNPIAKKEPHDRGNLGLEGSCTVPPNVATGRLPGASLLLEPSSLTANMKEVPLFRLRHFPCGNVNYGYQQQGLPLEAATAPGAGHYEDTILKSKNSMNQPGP

[3] = biological target: T1, Aurora kinase C (Homo sapiens) (UniProt Q9UQB9); assay: Inhibition of AURKC (unknown origin) assessed as residual activity at 100 nM by KINOMEscan analysis relative to control
T1 sequence (whole entry): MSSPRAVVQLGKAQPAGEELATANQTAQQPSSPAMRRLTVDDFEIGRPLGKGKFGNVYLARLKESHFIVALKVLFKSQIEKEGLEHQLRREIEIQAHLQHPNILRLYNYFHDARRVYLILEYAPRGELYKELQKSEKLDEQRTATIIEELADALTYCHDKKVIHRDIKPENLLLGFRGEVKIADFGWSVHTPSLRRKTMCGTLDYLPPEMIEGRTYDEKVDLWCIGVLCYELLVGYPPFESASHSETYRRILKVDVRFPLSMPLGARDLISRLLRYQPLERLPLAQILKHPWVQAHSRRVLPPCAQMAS

[4] = biological target: Bone morphogenetic protein receptor type-1A (Homo sapiens) (UniProt P36894); assay: Inhibition of BMPR1A (unknown origin) assessed as residual activity at 100 nM by KINOMEscan analysis relative to control
[5] = biological target: Cyclin-dependent kinase 7 (Homo sapiens) (UniProt P50613); assay: Inhibition of CDK7 (unknown origin) assessed as residual activity at 100 nM by KINOMEscan analysis relative to control
[6] = biological target: Mitogen-activated protein kinase 3 (Homo sapiens) (UniProt P27361); assay: Inhibition of ERK1 (unknown origin) assessed as residual activity at 100 nM by KINOMEscan analysis relative to control
Mitogen-activated protein kinase 3 (Homo sapiens), sequence (P27361 whole entry): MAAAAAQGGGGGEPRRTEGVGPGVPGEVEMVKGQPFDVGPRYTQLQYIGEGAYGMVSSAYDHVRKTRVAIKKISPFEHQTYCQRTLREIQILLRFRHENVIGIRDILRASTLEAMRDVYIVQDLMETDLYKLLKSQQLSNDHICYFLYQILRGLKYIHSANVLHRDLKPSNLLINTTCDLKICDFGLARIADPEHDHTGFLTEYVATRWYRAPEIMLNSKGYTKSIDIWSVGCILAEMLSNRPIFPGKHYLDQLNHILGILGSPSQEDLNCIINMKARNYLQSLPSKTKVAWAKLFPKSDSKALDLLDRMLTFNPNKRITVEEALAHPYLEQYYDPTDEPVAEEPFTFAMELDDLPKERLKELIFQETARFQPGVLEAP

[7] = biological target: Mitogen-activated protein kinase 4 (Homo sapiens) (UniProt P31152); assay: Inhibition of ERK4 (unknown origin) assessed as residual activity at 100 nM by KINOMEscan analysis relative to control
Mitogen-activated protein kinase 4 (Homo sapiens), sequence (P31152 whole entry): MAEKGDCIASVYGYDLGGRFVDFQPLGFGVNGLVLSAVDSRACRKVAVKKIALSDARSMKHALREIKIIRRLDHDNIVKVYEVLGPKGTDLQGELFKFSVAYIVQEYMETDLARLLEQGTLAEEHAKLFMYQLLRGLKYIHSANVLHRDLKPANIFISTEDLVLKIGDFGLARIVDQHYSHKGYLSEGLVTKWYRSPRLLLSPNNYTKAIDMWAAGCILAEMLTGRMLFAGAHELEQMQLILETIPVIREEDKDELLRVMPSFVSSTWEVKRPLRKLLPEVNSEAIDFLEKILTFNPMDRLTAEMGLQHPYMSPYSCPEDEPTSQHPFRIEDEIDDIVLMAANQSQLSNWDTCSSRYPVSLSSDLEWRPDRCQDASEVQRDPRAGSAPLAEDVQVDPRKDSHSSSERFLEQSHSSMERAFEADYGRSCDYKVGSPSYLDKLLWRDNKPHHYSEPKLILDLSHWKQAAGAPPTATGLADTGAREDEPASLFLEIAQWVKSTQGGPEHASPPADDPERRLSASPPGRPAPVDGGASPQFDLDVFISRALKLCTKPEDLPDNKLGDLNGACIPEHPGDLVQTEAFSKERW

[8] = biological target: Homeodomain-interacting protein kinase 2 (Homo sapiens) (UniProt Q9H2X6); assay: Inhibition of HIPK2 (unknown origin) assessed as residual activity at 100 nM by KINOMEscan analysis relative to control
[9] = biological target: LIM domain kinase 1 (Homo sapiens) (UniProt P53667); assay: Inhibition of LIMK1 (unknown origin) assessed as residual activity at 100 nM by KINOMEscan analysis relative to control
LIM domain kinase 1 (Homo sapiens), sequence (P53667 whole entry, looked up, the tested form may be a part): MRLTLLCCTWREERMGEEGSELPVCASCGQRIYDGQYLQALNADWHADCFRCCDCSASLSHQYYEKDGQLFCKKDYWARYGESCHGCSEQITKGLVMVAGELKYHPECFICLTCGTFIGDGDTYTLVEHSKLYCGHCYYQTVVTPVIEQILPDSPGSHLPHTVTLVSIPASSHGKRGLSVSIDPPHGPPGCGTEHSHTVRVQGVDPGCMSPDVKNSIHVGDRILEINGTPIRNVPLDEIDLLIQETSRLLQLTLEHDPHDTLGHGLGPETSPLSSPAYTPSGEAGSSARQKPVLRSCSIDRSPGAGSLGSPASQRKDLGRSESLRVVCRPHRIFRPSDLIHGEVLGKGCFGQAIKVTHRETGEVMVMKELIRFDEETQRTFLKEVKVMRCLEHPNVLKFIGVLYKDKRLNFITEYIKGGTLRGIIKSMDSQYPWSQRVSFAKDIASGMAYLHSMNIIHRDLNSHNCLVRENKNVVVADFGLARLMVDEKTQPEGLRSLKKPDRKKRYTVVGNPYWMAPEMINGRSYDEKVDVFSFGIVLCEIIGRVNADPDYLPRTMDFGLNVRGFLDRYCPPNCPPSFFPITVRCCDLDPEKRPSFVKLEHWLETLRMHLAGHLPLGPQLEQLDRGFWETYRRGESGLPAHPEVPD

[10] = biological target: MAP kinase-activated protein kinase 2 (Homo sapiens) (UniProt P49137); assay: Inhibition of MAPKAPK2 (unknown origin) assessed as residual activity at 100 nM by KINOMEscan analysis relative to control
[11] = biological target: T2, Dual specificity mitogen-activated protein kinase kinase 3 (Homo sapiens) (UniProt P46734); assay: Inhibition of MEK3 (unknown origin) assessed as residual activity at 100 nM by KINOMEscan analysis relative to control
T2 sequence (whole entry): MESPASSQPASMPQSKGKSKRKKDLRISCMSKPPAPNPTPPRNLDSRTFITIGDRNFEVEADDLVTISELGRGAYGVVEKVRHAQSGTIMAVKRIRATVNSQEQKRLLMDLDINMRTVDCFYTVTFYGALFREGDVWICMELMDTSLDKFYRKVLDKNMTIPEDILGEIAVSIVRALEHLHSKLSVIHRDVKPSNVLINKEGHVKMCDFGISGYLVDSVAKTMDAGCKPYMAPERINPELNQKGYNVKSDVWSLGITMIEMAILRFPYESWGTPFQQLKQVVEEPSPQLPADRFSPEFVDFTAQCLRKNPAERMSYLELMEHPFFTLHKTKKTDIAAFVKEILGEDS

[12] = biological target: MAP kinase-interacting serine/threonine-protein kinase 2 (Homo sapiens) (UniProt Q9HBH9); assay: Inhibition of MKNK2 (unknown origin) assessed as residual activity at 100 nM by KINOMEscan analysis relative to control
MAP kinase-interacting serine/threonine-protein kinase 2 (Homo sapiens), sequence (Q9HBH9 whole entry, looked up): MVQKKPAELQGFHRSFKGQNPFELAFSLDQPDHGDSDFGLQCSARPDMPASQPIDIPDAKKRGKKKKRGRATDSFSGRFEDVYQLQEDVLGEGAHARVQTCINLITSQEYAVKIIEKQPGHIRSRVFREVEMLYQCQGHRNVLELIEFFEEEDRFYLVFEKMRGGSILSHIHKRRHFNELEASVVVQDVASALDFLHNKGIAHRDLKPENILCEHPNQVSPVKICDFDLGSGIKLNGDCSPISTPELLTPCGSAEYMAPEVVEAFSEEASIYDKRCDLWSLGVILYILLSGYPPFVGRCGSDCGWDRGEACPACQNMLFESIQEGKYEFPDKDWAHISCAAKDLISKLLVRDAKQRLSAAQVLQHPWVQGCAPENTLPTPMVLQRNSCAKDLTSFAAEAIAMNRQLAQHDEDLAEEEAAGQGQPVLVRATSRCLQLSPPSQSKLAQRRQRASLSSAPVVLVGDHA

[13] = biological target: Serine/threonine-protein kinase pim-2 (Homo sapiens) (UniProt Q9P1W9); assay: Inhibition of PIM2 (unknown origin) assessed as residual activity at 100 nM by KINOMEscan analysis relative to control
Serine/threonine-protein kinase pim-2 (Homo sapiens), sequence (Q9P1W9 whole entry, looked up): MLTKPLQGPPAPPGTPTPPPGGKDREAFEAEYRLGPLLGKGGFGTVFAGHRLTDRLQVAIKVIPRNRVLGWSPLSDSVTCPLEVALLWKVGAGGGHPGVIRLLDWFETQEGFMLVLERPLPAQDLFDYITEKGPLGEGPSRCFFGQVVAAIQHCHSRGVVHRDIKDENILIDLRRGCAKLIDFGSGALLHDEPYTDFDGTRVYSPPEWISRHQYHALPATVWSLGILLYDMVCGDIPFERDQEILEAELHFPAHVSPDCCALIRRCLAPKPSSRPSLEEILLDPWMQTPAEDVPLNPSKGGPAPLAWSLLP

[14] = biological target: T3, Phosphatidylinositol 5-phosphate 4-kinase type-2 gamma (Homo sapiens) (UniProt Q8TBX8); assay: Inhibition of PIP5K2C (unknown origin) assessed as residual activity at 100 nM by KINOMEscan analysis relative to control
T3 sequence (whole entry): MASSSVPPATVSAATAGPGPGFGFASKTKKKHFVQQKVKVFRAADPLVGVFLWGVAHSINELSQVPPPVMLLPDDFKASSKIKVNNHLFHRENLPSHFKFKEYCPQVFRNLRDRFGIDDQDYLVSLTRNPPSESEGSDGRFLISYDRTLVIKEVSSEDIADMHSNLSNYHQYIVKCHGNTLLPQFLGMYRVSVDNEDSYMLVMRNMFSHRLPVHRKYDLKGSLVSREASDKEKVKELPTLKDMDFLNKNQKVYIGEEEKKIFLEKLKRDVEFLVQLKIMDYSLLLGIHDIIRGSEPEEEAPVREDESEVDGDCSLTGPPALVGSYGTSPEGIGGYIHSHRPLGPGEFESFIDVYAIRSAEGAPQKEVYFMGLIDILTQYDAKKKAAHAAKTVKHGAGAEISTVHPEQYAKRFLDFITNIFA

[15] = biological target: Serine/threonine-protein kinase PRP4 homolog (Homo sapiens) (UniProt Q13523); assay: Inhibition of PRP4 (unknown origin) assessed as residual activity at 100 nM by KINOMEscan analysis relative to control
[16] = biological target: SRSF protein kinase 2 (Homo sapiens) (UniProt P78362); assay: Inhibition of SRPK2 (unknown origin) assessed as residual activity at 100 nM by KINOMEscan analysis relative to control
[17] = biological target: TGF-beta receptor type-2 (Homo sapiens) (UniProt P37173); assay: Inhibition of TGFBR2 (unknown origin) assessed as residual activity at 100 nM by KINOMEscan analysis relative to control

For `COc1cc2ncnc(N[C@H](C)c3cccc4ccccc34)c2cc1OC`, the Activity (Homo sapiens) was “Active”, the Activity [1] was 74% and the Activity [2] was 87%. The Activity [3] was 78%, the Activity [4] was 71% and the Activity [5] was 88%. The Activity [6] was 91%, the Activity [7] was 100% and the Activity [8] was 93%. It also gave an Activity [9] of 81%, an Activity [10] of 83% and an Activity [11] of 90%. The Activity [12] was 89%, the Activity [13] was 73% and the Activity [14] was 96%. For the same molecule, the Activity [15] was 95%, the Activity [16] was 92% and the Activity [17] was 93%.
